Assay results: patent US9382306B2, “Octapeptide compounds derived from somatostatin and the therapeutic use thereof” (IPSEN PHARMA S.A.S., priority 2008, dated 2016)
“And” between values parts separate entries of the source, which are not always exact repeats. Identical values can stand only once. Bridge positions count the residues as written; N and C are the ends. Square brackets hold non-standard residues; d marks the D form. Peptide text beside a SMILES is read from it. ξ: configuration not given here. dPhe(4-Br) = N[C@H](Cc1ccc(Br)cc1)C(=O)O; dPhe(2-Br) = N[C@H](Cc1ccccc1Br)C(=O)O; 2Nal = N[C@@H](Cc1ccc2ccccc2c1)C(=O)O; d2Nal = N[C@H](Cc1ccc2ccccc2c1)C(=O)O; d(hPhe) = N[C@H](CCc1ccccc1)C(=O)O; dThr(3ξ) = CC(O)[C@@H](N)C(=O)O; Thr(3ξ) = CC(O)[C@H](N)C(=O)O

Columns and labels:
[1] = molecular target: T1, somatostatin receptors sub-type 2 (Homo sapiens, UniProt P30874); assay: Affinity for somatostatin receptors: inhibition of [125I-Tyr11]SRIF-14 binding to membranes of transfected CHO-K1 cells; conditions: competitive inhibition of [125I-Tyr11]SRIF-14 binding, 37° C.
T1 construct: expressed in transfected cells; membrane preparations
Experimental: (§1) The affinity of the compounds of the invention for the somatostatin receptors is determined by measurement of the inhibition of the bond of [125I-Tyr11]SRIF-14 to membrane preparations of transfected CHO-K1 cells.
(§2) The CHO-K1 cells expressing in a stable fashion each of the sub-types of somatostatin receptors are collected with 0.5 mM of EDTA and centrifuged at 500 g for 5 minutes at 4° C. The pellet is re-suspended in phosphate buffer (PBS) and centrifuged at 500 g for 5 minutes at 4° C. The pellet is re-suspended in Tris 50 mM buffer at pH 7.4 and centrifuged at 500 g for 5 minutes at 4° C. The cells are lyzed by sonication and centrifuged at 39,000 g for 10 minutes. The pellet is re-suspended in Tris 50 mM buffer at pH 7.4, an aliquot is removed for assaying the proteins and the remainder is centrifuged at 50,000 g for 10 minutes. The membranes obtained in this last pellet are stored at −80° C.
(§3) Measurement of the competitive inhibition of the bond of [125I-Tyr11]SRIF-14 (Perkin Elmer) on each of the sub-types of somatostatin receptors is carried out in duplicate in 96-well polypropylene plates. The cell membranes (5 to 20 µg of proteins/well) are incubated with [125I-Tyr11]SRIF-14 (0.05 to 0.1 nM) for 50 to 90 minutes at 37° C. (conditions dependent on the sub-type of receptor) in a HEPES buffer medium 50 mM pH 7.4, comprising 0.2% bovine serum albumin (BSA), MgCl2 5 mM, Trasylol 200 KIU/mL, Bacitracin 0.02 mg/mL, phenylmethylsulphonyl fluoride 0.02 mg/mL.
(§4) The bound [125I-Tyr11]SRIF-14 is separated from the free [125I-Tyr11]SRIF-14 by filtration through GF/C glass fibre plates (Unifilter, Perkin Elmer) pre-impregnated with 0.1% polyethylenimine (P.E.I.), using a Filtermate 96 (Perkin Elmer). The filters are washed with Tris-HCl buffer 50 mM, pH 7.4 at 4° C. and the radioactivity present is determined using a counter (TopCount, Perkin Elmer).
(§5) The data are analyzed by computer-assisted non-linear regression using XLfit 4.2 (IDBS) software.

[2] = molecular target: T2, somatostatin receptors sub-type 5 (Homo sapiens, UniProt P35346); assay: as above; conditions: competitive inhibition of [125I-Tyr11]SRIF-14 binding, 37° C.
T2 construct: expressed in transfected cells; membrane preparations
Experimental: as §1, §2, §3, §4, §5

[3] = Self-assembly study: putting peptides in solution in water, macroscopic, ATR-FTIR, TEM and SAXS analysis; assay type: physicochemical; conditions: 3 to 15% by mass of peptide in water; form and diameter of the self-assembled structure, or soluble / insoluble
From the text: The procedure used comprises three stages: putting the peptides in solution and macroscopic analysis; spectroscopic and microscopic analyses of the structures formed and by small-angle X-ray scattering (SAXS) analyses.
The first stage of the characterization of the derivatives is the production of a range of concentrations from 3 to 15% by mass of peptide in water. Gelling of the solution indicates the presence of self-assembled structures which can be nanotubes but can also be fibres or other self-organised structures.
The object of this stage is to verify the presence of self-assembled structures, to characterize their self-assembly and to visualize them by microscopy.
Infrared spectroscopy makes it possible to obtain information on the method of stacking the peptides in the self-assemblies. The amide band spectrum, reflecting the absorption spectra of the carbonyl functions of the peptide backbone, gives information on the type of hydrogen bond in which these groups are involved (H bonds leading to the formation of the […], a helix or also a loop or random conformation) and consequently on the secondary and tertiary structure of the peptides in solution and self-assembled. The attenuated total reflection technique (ATR-FTIR) uses a crystal on which the solid or liquid sample is deposited. The infrared light is guided through this crystal at an angle which allows it to be reflected several times inside the crystal, which increases the sensitivity of the technique. Due to the performance of this device, it is then possible perform measurements on relatively dilute solutions. The beam penetrates a few microns into the sample deposited on the crystal, which means that only the molecules/structures which are deposited on the surface of the crystal are analyzed. Moreover, this technique is non-destructive.
The assembled structures are then visualized by transmission electron microscopy (TEM). This very powerful technique, allowing magnifications greater than 500,000 times, is one of the few techniques capable of visualizing structures on the nanometric scale. The sample is subjected to an electron beam. The visualization of the transmitted beam is produced either by a photoluminescent screen, or by a CCD camera. The sample in the microscope being under vacuum, it is samples dried after staining with uranyl salts in order to increase contrast which are observed.
The peptide in solution is firstly deposited on a copper grid covered with a film of carbon. After deposition of the materiel, the excess liquid is eliminated. In the same way, the solution of colorant, in our case uranyl acetate, is deposited on the grid, the excess is eliminated and the grid is dried in the open air. It can then be introduced into the microscope.
The samples, liquids or gels, are introduced into a capillary column and subjected to a monochromatic flow of X-rays. The intensity diffused is measured as a function of the scattering angle with respect to the incident angle.
The diffusion patterns thus obtained must be the subject of a correlation with a close theoretical model of the structures present in the sample. In the case where the peptides have self-assembled in the form of hollow nanotubes, the modelling of the experimental data with the theoretical diffusion produced by infinitely long hollow columns makes it possible to determine with precision the diameter of the columns and to estimate their wall thickness (Valery et al. in Biophysical journal, 2004, 86(4), 2484-2501 and Proc. Natl. Acad. Sci., 2003, 100(18) 10258-10262). For polydisperse, nanotubular, fibrilar, micellar or lamellar self-assemblies, it is the correlation of the spectroscopic, microscopic and XR scattering data which makes it possible to estimate a size range for the objects observed.

T2 sequence (P35346 whole entry): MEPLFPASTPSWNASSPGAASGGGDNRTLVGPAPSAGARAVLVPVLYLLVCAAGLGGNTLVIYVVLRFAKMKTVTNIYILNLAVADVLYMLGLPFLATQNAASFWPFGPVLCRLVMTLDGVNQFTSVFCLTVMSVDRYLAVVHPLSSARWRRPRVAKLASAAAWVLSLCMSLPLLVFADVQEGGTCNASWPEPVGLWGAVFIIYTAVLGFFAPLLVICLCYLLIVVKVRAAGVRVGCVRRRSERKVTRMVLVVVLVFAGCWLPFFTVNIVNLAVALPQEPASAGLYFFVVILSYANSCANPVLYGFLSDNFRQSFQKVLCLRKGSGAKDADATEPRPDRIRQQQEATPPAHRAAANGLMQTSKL
T1 sequence (P30874 whole entry): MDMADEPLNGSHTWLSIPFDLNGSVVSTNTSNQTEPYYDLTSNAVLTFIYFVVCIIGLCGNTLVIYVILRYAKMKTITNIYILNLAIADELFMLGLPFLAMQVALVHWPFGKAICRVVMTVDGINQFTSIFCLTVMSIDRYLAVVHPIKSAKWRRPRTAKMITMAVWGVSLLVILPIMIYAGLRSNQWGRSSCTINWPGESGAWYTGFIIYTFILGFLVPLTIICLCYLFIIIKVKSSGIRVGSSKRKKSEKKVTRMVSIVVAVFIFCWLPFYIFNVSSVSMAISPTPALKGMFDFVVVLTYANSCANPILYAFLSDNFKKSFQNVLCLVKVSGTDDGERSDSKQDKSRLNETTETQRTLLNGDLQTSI

| Ki [1] [nM] | Ki [2] [nM] | SMILES | Assembly [3] |
| --- | --- | --- | --- |
| ≤ 5 | ≤ 100 | CC(C)[C@@H]1NC(=O)[C@H](CCCCN)NC(=O)[C@@H](Cc2csc3ccccc23)NC(=O)[C@H](Cc2ccc(O)cc2)NC(=O)[C@@H](NC(=O)[C@H](N)Cc2ccc3ccccc3c2)CSSC[C@@H](C(=O)N[C@H](C(N)=O)C(C)O)NC1=O (stereo partly drawn) [Example 1, H-D-2-Nal^1-cyclo(Cys^2-Tyr^3-β-(3-benzothienyl)-D-Ala^4-Lys^5-Val^6-Cys^7)-Thr^8-NH2.2 CH3COOH] | monodisperse peptide nanotubes and 20 nm monodisperse nanotube |
| ≤ 700 | ≤ 5000 | CC(C)[C@@H]1NC(=O)[C@H](CCCCN)NC(=O)[C@@H](C(C)C)NC(=O)[C@H](Cc2ccc(O)cc2)NC(=O)[C@@H](NC(=O)[C@H](N)Cc2ccc3ccccc3c2)CSSC[C@@H](C(=O)N[C@H](C(N)=O)C(C)O)NC1=O (stereo partly drawn) [Example 5, H-D-2-Nal^1-cyclo(Cys^2Tyr^3-D-Val^4-Lys^5-Val^6Cys^7)-Thr^8-NH2.2 CH3COOH] (H-[d2Nal]CY[dV]KVC[Thr(3ξ)]-NH2; disulfide 2-7) | soluble |
| ≤ 50 | ≤ 100 | CC(C)[C@@H]1NC(=O)[C@H](CCCCN)NC(=O)[C@@H](Cc2c3ccccc3cc3ccccc23)NC(=O)[C@H](Cc2ccc(O)cc2)NC(=O)[C@@H](NC(=O)[C@H](N)Cc2ccc3ccccc3c2)CSSC[C@@H](C(=O)N[C@H](C(N)=O)C(C)O)NC1=O (stereo partly drawn) [Example 8, H-D-2-Nal^1-cyclo(Cys^2Tyr^3-β-(9-anthryl)-D-Ala^4-Lys^5-Val^6Cys^7)-Thr^8-NH2.2 CH3COOH] | insoluble |
| ≤ 5 | ≤ 100 | CC(C)[C@@H]1NC(=O)[C@H](CCCCN)NC(=O)[C@@H](Cc2ccc(Br)cc2)NC(=O)[C@H](Cc2ccc(O)cc2)NC(=O)[C@@H](NC(=O)[C@H](N)Cc2ccc3ccccc3c2)CSSC[C@@H](C(=O)N[C@H](C(N)=O)C(C)O)NC1=O (stereo partly drawn) [Example 12, H-D-2-Nal^1-cyclo(Cys^2-Tyr^3-p-Br-D-Phe^4-Lys^5-Val^6-Cys^7)-Thr^8-NH2.2 CH3COOH] (H-[d2Nal]CY[dPhe(4-Br)]KVC[Thr(3ξ)]-NH2; disulfide 2-7) | monodisperse peptide nanotubes and 17 nm monodisperse nanotube |
| ≤ 5 | ≤ 1000 | CC(C)[C@@H]1NC(=O)[C@H](CCCCN)NC(=O)[C@@H](Cc2ccc(O)cc2)NC(=O)[C@H](Cc2ccc(O)cc2)NC(=O)[C@@H](NC(=O)[C@H](N)Cc2ccc3ccccc3c2)CSSC[C@@H](C(=O)N[C@H](C(N)=O)C(C)O)NC1=O (stereo partly drawn) [Example 14, H-D-2-Nal^1-cyclo(Cys^2-Tyr^3-D-Tyr^4-Lys^5-Val^6-Cys^7)-Thr^8-NH2.2 CH3COOH] (H-[d2Nal]CY[dY]KVC[Thr(3ξ)]-NH2; disulfide 2-7) | monodisperse peptide nanotubes and 18 nm monodisperse nanotube |
| ≤ 5 | ≤ 100 | CC(C)[C@@H]1NC(=O)[C@H](CCCCN)NC(=O)[C@@H](Cc2ccccc2Br)NC(=O)[C@H](Cc2ccc(O)cc2)NC(=O)[C@@H](NC(=O)[C@H](N)Cc2ccc3ccccc3c2)CSSC[C@@H](C(=O)N[C@H](C(N)=O)C(C)O)NC1=O (stereo partly drawn) [Example 19, H-D-2-Nal^1-cyclo(Cys^2-Tyr^3-o-Br-D-Phe^4-Lys^5-Val^6-Cys^7)-Thr^8-NH2.2 CH3COOH] (H-[d2Nal]CY[dPhe(2-Br)]KVC[Thr(3ξ)]-NH2; disulfide 2-7) |  |

Second part, the compound before the results:

| SMILES | Ki [1] [nM] | Ki [2] [nM] | Assembly [3] |
| --- | --- | --- | --- |
| CC(C)[C@@H]1NC(=O)[C@H](CCCCN)NC(=O)[C@@H](Cc2cccs2)NC(=O)[C@H](Cc2ccc(O)cc2)NC(=O)[C@@H](NC(=O)[C@H](N)Cc2ccc3ccccc3c2)CSSC[C@@H](C(=O)N[C@H](C(N)=O)C(C)O)NC1=O (stereo partly drawn) [Example 2, H-D-2-Nal^1-cyclo(Cys^2-Tyr^3-β-(2-thienyl)-D-Ala^4-Lys^5-Val^6-Cys^7)-Thr^8-NH2.2 CH3COOH] | ≤ 50 | ≤ 1000 | monodisperse peptide nanotubes and 12 nm monodisperse nanotube |
| CC(C)[C@@H]1NC(=O)[C@H](CCCCN)NC(=O)[C@@H](c2ccccc2)NC(=O)[C@H](Cc2ccc(O)cc2)NC(=O)[C@@H](NC(=O)[C@H](N)Cc2ccc3ccccc3c2)CSSC[C@@H](C(=O)N[C@H](C(N)=O)C(C)O)NC1=O (stereo partly drawn) [Example 10, H-D-2-Nal^1-cyclo(Cys^2-Tyr^3-D-Phg^4-Lys^5-Val^6-Cys^7)-Thr^8-NH2.2 CH3COOH] | ≤ 700 | ≤ 5000 | self-assembled fibres |
| CC(C)[C@@H]1NC(=O)[C@H](CCCCN)NC(=O)[C@@H](CCc2ccccc2)NC(=O)[C@H](Cc2ccc(O)cc2)NC(=O)[C@@H](NC(=O)[C@H](N)Cc2ccc3ccccc3c2)CSSC[C@@H](C(=O)N[C@H](C(N)=O)C(C)O)NC1=O (stereo partly drawn) [Example 11, H-D-2-Nal^1-cyclo(Cys^2-Tyr^3-D-Homophe^4-Lys^5-Val^6Cys^7)-Thr^8-NH2.2 CH3COOH] (H-[d2Nal]CY[d(hPhe)]KVC[Thr(3ξ)]-NH2; disulfide 2-7) | ≤ 50 | ≤ 1000 | soluble |
| COCCOCCOc1ccc(C[C@H]2NC(=O)[C@H](Cc3ccc(O)cc3)NC(=O)[C@@H](NC(=O)[C@H](N)Cc3ccc4ccccc4c3)CSSC[C@@H](C(=O)N[C@H](C(N)=O)[C@@H](C)O)NC(=O)[C@H](C(C)C)NC(=O)[C@H](CCCCN)NC2=O)cc1 [Example 22, H-D-2-Nal^1-cyclo(Cys^2-Tyr^3-p-2-(2-methoxyethoxy)ethoxy)-D-Phe^4-Lys^5-Val^6-Cys^7)-Thr^8-NH2].2 CH3COOH] |  |  | 17.4 nm monodisperse nanotube |
| CC(C)[C@H]1NC(=O)[C@@H](CCCCN)NC(=O)[C@H](Cc2c[nH]c3ccccc23)NC(=O)[C@@H](Cc2ccc(O)cc2)NC(=O)[C@H](NC(=O)[C@@H](N)Cc2ccc3ccccc3c2)CSSC[C@H](C(=O)N[C@@H](C(N)=O)C(C)O)NC1=O (stereo partly drawn) [Example 23, H-2-Nal^1-cyclo(D-Cys^2-D-Tyr^3-Trp^4-D-Lys^5-D-Val^6-D-Cys^7)-D-Thr^8-NH2.2 CH3COOH] (H-[2Nal][dC][dY]W[dK][dV][dC][dThr(3ξ)]-NH2; disulfide 2-7) |  |  | 24.4 nm monodisperse nanotube |
